# Experimental data taken from the NIST ThermoML archive (doi:10.1021/je200140m).
# Numbers after ± are expanded uncertainties.
# Columns and labels:
# [1] = Liquid, Closed cell (Static) method
# [2] = refractive index (Na D-line) (dimensionless); settings: 101.33 kPa, Liquid, Standard Abbe refractometry
smiles,measurement,setting,value
COC=O [methyl methanoate],vapor or sublimation pressure,[1]; 308.11 K,114.7 ± 0.9 kPa
same,vapor or sublimation pressure,[1]; 358.92 K,550.4 ± 1.4 kPa
same,refractive index,[2]; 293.1 K,1.34359 ± 0.00076
COC [dimethyl ether],vapor or sublimation pressure,[1]; 308.1 K,788 ± 2 kPa
same,vapor or sublimation pressure,[1]; 308.13 K,785.2 ± 1.8 kPa
same,vapor or sublimation pressure,[1]; 335.65 K,1539.6 ± 2.6 kPa
CO [methanol],vapor or sublimation pressure,[1]; 358.93 K,221.4 ± 1 kPa
same,refractive index,[2]; 293.1 K,1.32853 ± 0.00073
CCCCCC [hexane],vapor or sublimation pressure,[1]; 308.12 K,30.8 ± 0.8 kPa
same,vapor or sublimation pressure,[1]; 335.66 K,83 ± 1 kPa
same,refractive index,[2]; 298.1 K,1.37514 ± 0.00073
